# Source: the NIST ThermoML archive (doi:10.1016/j.jct.2015.09.034)
# Numbers after ± are expanded uncertainties.
# Settings: Liquid, Buoyancy - hydrostatic balance with magnetic suspension - one sinker
smiles,measurement,setting,value
C [methane],mass density,"105 K, 185.5 kPa",432.098 ± 0.16 kg/m3
same,mass density,"105 K, 478.95 kPa",432.339 ± 0.16 kg/m3
same,mass density,"105 K, 973.88 kPa",432.743 ± 0.16 kg/m3
same,mass density,"105 K, 1970.8 kPa",433.554 ± 0.17 kg/m3
same,mass density,"105 K, 5044.6 kPa",435.981 ± 0.17 kg/m3
same,mass density,"115 K, 479.33 kPa",417.827 ± 0.16 kg/m3
same,mass density,"115 K, 973.28 kPa",418.319 ± 0.16 kg/m3
same,mass density,"115 K, 1970 kPa",419.298 ± 0.16 kg/m3
same,mass density,"125 K, 477.88 kPa",402.38 ± 0.15 kg/m3
same,mass density,"125 K, 972.71 kPa",402.99 ± 0.15 kg/m3
same,mass density,"125 K, 1970.4 kPa",404.194 ± 0.15 kg/m3
same,mass density,"125 K, 5112.4 kPa",407.803 ± 0.15 kg/m3
same,mass density,"135 K, 783.75 kPa",386.1 ± 0.15 kg/m3
same,mass density,"135 K, 1001.2 kPa",386.441 ± 0.15 kg/m3
same,mass density,"135 K, 2014.3 kPa",387.992 ± 0.15 kg/m3
same,mass density,"135 K, 5208.9 kPa",392.557 ± 0.15 kg/m3
